Data reported in US10167262B2, “Herbicidal substituted 3-arylpyrazoles” (FMC CORPORATION, priority 2014, dated 2019).

What was measured:
Assay type in all cases: in vivo
[1] = test system: blackgrass (Alopecurus myosuroides); experiment: Test C pre-/postemergence greenhouse test, plant response rating 0-100
Procedure, shortened: (§1)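 Visual rating vs controls after 13–15 d greenhouse; 0 = no effect, 100 = complete control. Pre: seeds in loam/sand, treated at planting. Post: seedlings 2–18 cm (1–4 leaf) in peat-based mix. Compounds in surfactant-containing non-phytotoxic solvent.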

corn (Zea mays) = experiment: as above
Procedure, shortened: as §1

[2] = test system: giant foxtail (Setaria faberii); experiment: as above
Procedure, shortened: as §1

[3] = test system: johnsongrass (Sorghum halepense); experiment: as above
Procedure, shortened: as §1

[4] = test system: lambsquarters (Chenopodium album); experiment: as above
Procedure, shortened: as §1

[5] = test system: large (Lg) crabgrass (Digitaria sanguinalis); experiment: as above
Procedure, shortened: as §1

[6] = test system: oilseed rape (Brassica napus); experiment: as above
Procedure, shortened: as §1

[7] = test system: pigweed (Amaranthus retroflexus); experiment: as above
Procedure, shortened: as §1

soybean (Glycine max) = experiment: as above
Procedure, shortened: as §1

[8] = test system: winter wheat (Triticum aestivum); experiment: as above
Procedure, shortened: as §1

[9] = test system: yellow nutsedge (Cyperus esculentus); experiment: as above
Procedure, shortened: as §1

[10] = test system: chickweed (common chickweed, Stellaria media); experiment: Test C postemergence greenhouse test, plant response rating 0-100; details: for Plant response rating, Chickweed: scale 0 to 100
Procedure, shortened: (§2)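 Postemergence spray onto 1–4-leaf potted seedlings, greenhouse incubation 13–15 days. Visual percent-control rating (0–100) against untreated plants.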

kochia (Kochia scoparia) = experiment: as above; details: for Plant response rating, Kochia: scale 0 to 100
Procedure, shortened: as §2

wild oat (Avena fatua) = experiment: as above; details: for Plant response rating, Oat, Wild: scale 0 to 100
Procedure, shortened: as §2

[11] = Postemergence, 250 g ai/ha, scale 0 to 100
[12] = Postemergence, 500 g ai/ha, scale 0 to 100

SMILES: CCOC(OCC)(c1cccs1)c1c[nH]nc1-c1cc(Cl)cc(Cl)c1 [Compound 27]
- Plant response rating (0 to 100), Blackgrass ([1]; Postemergence, 62 g ai/ha): 0
- Plant response rating, Blackgrass ([1]; Postemergence, 125 g ai/ha, scale 0 to 100): 5
- Plant response rating, Blackgrass [1, 11]: 0
- Plant response rating, Blackgrass [1, 12]: 0
- Plant response rating, Blackgrass ([1]; Preemergence, 62 g ai/ha): 20
- Plant response rating, Blackgrass ([1]; Preemergence, 125 g ai/ha): 0
- Plant response rating, Blackgrass ([1]; Preemergence, 250 g ai/ha): 50
- Plant response rating, Blackgrass ([1]; Preemergence, 500 g ai/ha): 0
- Plant response rating (0 to 100), Corn (corn (Zea mays); Postemergence, 62 g ai/ha): 0
- Plant response rating (0 to 100), Corn (corn (Zea mays); Postemergence, 125 g ai/ha): 0
- Plant response rating, Corn (corn (Zea mays); [11]): 0
- Plant response rating, Corn (corn (Zea mays); [12]): 0
- Plant response rating, Corn (corn (Zea mays); Preemergence, 62 g ai/ha): 0
- Plant response rating, Corn (corn (Zea mays); Preemergence, 125 g ai/ha): 0
- Plant response rating, Corn (corn (Zea mays); Preemergence, 250 g ai/ha): 0
- Plant response rating, Corn (corn (Zea mays); Preemergence, 500 g ai/ha): 0
- Plant response rating (0 to 100), Foxtail, Giant ([2]; Postemergence, 62 g ai/ha): 0
- Plant response rating (0 to 100), Foxtail, Giant ([2]; Postemergence, 125 g ai/ha): 0
- Plant response rating, Foxtail, Giant [2, 11]: 0
- Plant response rating, Foxtail, Giant [2, 12]: 0
- Plant response rating, Foxtail, Giant ([2]; Preemergence, 62 g ai/ha): 0
- Plant response rating, Foxtail, Giant ([2]; Preemergence, 125 g ai/ha): 0
- Plant response rating, Foxtail, Giant ([2]; Preemergence, 250 g ai/ha): 0
- Plant response rating, Foxtail, Giant ([2]; Preemergence, 500 g ai/ha): 0
- Plant response rating (0 to 100), Johnsongrass ([3]; Postemergence, 62 g ai/ha): 0
- Plant response rating (0 to 100), Johnsongrass ([3]; Postemergence, 125 g ai/ha): 0
- Plant response rating, Johnsongrass [3, 11]: 0
- Plant response rating, Johnsongrass [3, 12]: 10
- Plant response rating, Johnsongrass ([3]; Preemergence, 62 g ai/ha): 0
- Plant response rating, Johnsongrass ([3]; Preemergence, 125 g ai/ha): 0
- Plant response rating, Johnsongrass ([3]; Preemergence, 250 g ai/ha): 0
- Plant response rating, Johnsongrass ([3]; Preemergence, 500 g ai/ha): 0
- Plant response rating (0 to 100), Lambsquarters ([4]; Postemergence, 62 g ai/ha): 75
- Plant response rating (0 to 100), Lambsquarters ([4]; Postemergence, 125 g ai/ha): 95
- Plant response rating, Lambsquarters [4, 11]: 98
- Plant response rating, Lambsquarters [4, 12]: 98
- Plant response rating, Lambsquarters ([4]; Preemergence, 62 g ai/ha): 100
- Plant response rating, Lambsquarters ([4]; Preemergence, 125 g ai/ha): 100
- Plant response rating, Lambsquarters ([4]; Preemergence, 250 g ai/ha): 100
- Plant response rating, Lambsquarters ([4]; Preemergence, 500 g ai/ha): 100
- Plant response rating (0 to 100), Crabgrass, Large ([5]; Postemergence, 62 g ai/ha): 0
- Plant response rating (0 to 100), Crabgrass, Large ([5]; Postemergence, 125 g ai/ha): 0
- Plant response rating, Crabgrass, Large [5, 11]: 10
- Plant response rating, Crabgrass, Large [5, 12]: 10
- Plant response rating, Crabgrass, Large ([5]; Preemergence, 62 g ai/ha): 0
- Plant response rating, Crabgrass, Large ([5]; Preemergence, 125 g ai/ha): 0
- Plant response rating, Crabgrass, Large ([5]; Preemergence, 250 g ai/ha): 0
- Plant response rating, Crabgrass, Large ([5]; Preemergence, 500 g ai/ha): 0
- Plant response rating (0 to 100), Oilseed Rape ([6]; Postemergence, 62 g ai/ha): 45
- Plant response rating (0 to 100), Oilseed Rape ([6]; Postemergence, 125 g ai/ha): 50
- Plant response rating, Oilseed Rape [6, 11]: 50
- Plant response rating, Oilseed Rape [6, 12]: 45
- Plant response rating, Oilseed Rape ([6]; Preemergence, 62 g ai/ha): 70
- Plant response rating, Oilseed Rape ([6]; Preemergence, 125 g ai/ha): 90
- Plant response rating, Oilseed Rape ([6]; Preemergence, 250 g ai/ha): 85
- Plant response rating, Oilseed Rape ([6]; Preemergence, 500 g ai/ha): 90
- Plant response rating (0 to 100), Pigweed ([7]; Postemergence, 62 g ai/ha): 80
- Plant response rating (0 to 100), Pigweed ([7]; Postemergence, 125 g ai/ha): 95
- Plant response rating, Pigweed [7, 11]: 100
- Plant response rating, Pigweed [7, 12]: 100
- Plant response rating, Pigweed ([7]; Preemergence, 62 g ai/ha): 98
- Plant response rating, Pigweed ([7]; Preemergence, 125 g ai/ha): 100
- Plant response rating, Pigweed ([7]; Preemergence, 250 g ai/ha): 100
- Plant response rating, Pigweed ([7]; Preemergence, 500 g ai/ha): 100
- Plant response rating (0 to 100), Soybean (soybean (Glycine max); Postemergence, 62 g ai/ha): 0
- Plant response rating (0 to 100), Soybean (soybean (Glycine max); Postemergence, 125 g ai/ha): 0
- Plant response rating, Soybean (soybean (Glycine max); [11]): 0
- Plant response rating, Soybean (soybean (Glycine max); [12]): 0
- Plant response rating, Soybean (soybean (Glycine max); Preemergence, 62 g ai/ha): 0
- Plant response rating, Soybean (soybean (Glycine max); Preemergence, 125 g ai/ha): 0
- Plant response rating, Soybean (soybean (Glycine max); Preemergence, 250 g ai/ha): 40
- Plant response rating, Soybean (soybean (Glycine max); Preemergence, 500 g ai/ha): 0
- Plant response rating (0 to 100), Wheat ([8]; Postemergence, 62 g ai/ha): 0
- Plant response rating (0 to 100), Wheat ([8]; Postemergence, 125 g ai/ha): 0
- Plant response rating, Wheat [8, 11]: 0
- Plant response rating, Wheat [8, 12]: 0
- Plant response rating, Wheat ([8]; Preemergence, 62 g ai/ha): 0
- Plant response rating, Wheat ([8]; Preemergence, 125 g ai/ha): 0
- Plant response rating, Wheat ([8]; Preemergence, 250 g ai/ha): 0
- Plant response rating, Wheat ([8]; Preemergence, 500 g ai/ha): 0
- Plant response rating (0 to 100), Nutsedge, Yellow ([9]; Postemergence, 62 g ai/ha): 0
- Plant response rating (0 to 100), Nutsedge, Yellow ([9]; Postemergence, 125 g ai/ha): 0
- Plant response rating, Nutsedge, Yellow [9, 11]: 0
- Plant response rating, Nutsedge, Yellow [9, 12]: 0
- Plant response rating, Nutsedge, Yellow ([9]; Preemergence, 62 g ai/ha): 0
- Plant response rating, Nutsedge, Yellow ([9]; Preemergence, 125 g ai/ha): 0
- Plant response rating, Nutsedge, Yellow ([9]; Preemergence, 250 g ai/ha): 0
- Plant response rating, Nutsedge, Yellow ([9]; Preemergence, 500 g ai/ha): 0
- Plant response rating (0 to 100), Chickweed ([10]; 62 g ai/ha): 80
- Plant response rating (0 to 100), Chickweed ([10]; 125 g ai/ha): 85
- Plant response rating, Chickweed ([10]; 250 g ai/ha): 90
- Plant response rating, Chickweed ([10]; 500 g ai/ha): 90
- Plant response rating (0 to 100), Kochia (kochia (Kochia scoparia); 62 g ai/ha): 80
- Plant response rating (0 to 100), Kochia (kochia (Kochia scoparia); 125 g ai/ha): 80
- Plant response rating, Kochia (kochia (Kochia scoparia); 250 g ai/ha): 90
- Plant response rating, Kochia (kochia (Kochia scoparia); 500 g ai/ha): 90
- Plant response rating (0 to 100), Oat, Wild (wild oat (Avena fatua); 62 g ai/ha): 0
- Plant response rating (0 to 100), Oat, Wild (wild oat (Avena fatua); 125 g ai/ha): 0
- Plant response rating, Oat, Wild (wild oat (Avena fatua); 250 g ai/ha): 5
- Plant response rating, Oat, Wild (wild oat (Avena fatua); 500 g ai/ha): 5
